From patent US11987647B2, “Cyclic cell-penetrating peptides with one or more hydrophobic residues” (Ohio State Innovation Foundation, priority 2018, dated 2024) come the findings set out here.

Format in all cases: cell-based
For series [1], the system named is HeLa cells. Kind of series: Cellular entry by live-cell confocal imaging of FITC-labelled peptides. The conditions noted are these: 5 μM FITC-labelled peptide, 2 h. Here is the method:
CPP1-15 and CPP1-20 were labeled with FITC via a miniPEG-Lys linker. HeLa cells were treated with 5 μM peptide for 2 h, washed, and imaged by live-cell confocal imaging. […] Additional experiments are ongoing to further examine their mechanism of cell entry.

Series [2] concerns HeLa cells. Kind of series: Cytosolic entry efficiency of NF-labelled peptides by flow cytometry. The conditions noted are these: for Cellular Entry Efficiency In 1% FBS: relative to CPP12 (100%); for cytosolic entry efficiency: reduced serum concentration (1% FBS), CPP12 most active. In general terms: Flow cytometry measures light scatter and fluorescence of single cells or particles in a stream.

In series [3] the test system is HeLa cells. The series is described as above. Conditions: for sensitivity to serum concentration: 10% vs 1% FBS, compared with CPP9 or CPP12; for Cellular Entry Efficiency In 10% FBS: 2 h, relative to CPP12 (100%). Here is the method:
All of the peptides were labeled with naphthofluorescein (NF) at the Gln side chain through a long, flexible linker, miniPEG-Lys. HeLa cells were treated with 5 μM peptide for 2 h in the presence of 10% FBS and the cytosolic entry of the peptides was quantitated by flow cytometry analysis.
To determine cellular uptake efficiency of the CPPs disclosed herein, HeLa cells were cultured in 12-well plates (1.5×10^5 cells per well) overnight. The cells were incubated for 2 h with […] naphthofluorescein (NF)-labelled peptide in cellular media. At the end of incubation, the cells were washed with DPBS twice, detached from the plate with 0.25% trypsin, diluted into clear DMEM, pelleted at 250 g for 5 min, washed twice with DPBS, resuspended in DPBS, and analyzed on a BD FACS LSR II flow cytometer. For NF-labelled peptides, a 633-nm laser was used for excitation and the fluorescence emission was analyzed in the APC channel. Absolute cellular uptake efficiency was determined by comparing the concentration (via fluorescence intensity) of the CPP in the cytosol to the concentration in the extracellular medium. Relative cellular uptake efficiency was determined by comparing the cytosolic concentration of the CPP to that cytosolic concentration of the control CPP cyclo(FΦRRRRQ).

In series [4] the test system is HeLa cells. Kind of series: Cytotoxicity by the MTT assay. Conditions: no label, up to 40 μM concentration. The source says: CPP1-15 (no label) was used as a representative and tested against HeLa cells for potential cytotoxicity by the MTT assay.
[5] abbreviates: Table 4, 5 μM NF-labelled peptide, 10% FBS.
[6] abbreviates: Table 7, 5 μM NF-labelled peptide, 10% FBS.

The star is where a group is joined. Decanoyl = CCCCCCCCCC(=O)*

On to “cyclo(Asp^DecyRRRRQ) (cyclo(DRRRRQ); not fully specified (residue 1); printed as cyclo(Asp^DecyRRRRQ)) [CPP1-20]”, for which, in the series with HeLa cells [1], the “cellular entry (confocal imaging)” value is listed as “entered HeLa cells efficiently”. In addition, the “Cellular Entry Efficiency In 1% FBS” value amounted to 94 ± 41% in the series with HeLa cells [2] (Table 4, NF-labelled peptide) and 94 ± 41% with HeLa cells [2] (Table 7, NF-labelled peptide). This substance also showed a cytosolic entry efficiency with HeLa cells [2] of 94%. The improvement in activity in the series on HeLa cells [3] (10% FBS, relative to CPP1-4) was roughly 5 fold. In the series on HeLa cells [3], the “sensitivity to serum concentration” value was “lower sensitivity to serum concentration”. Also, the “Cellular Entry Efficiency In 10% FBS” value in the series on HeLa cells [3] (setting [5]) and in the series on HeLa cells [3] (setting [6]) was 281 ± 59% throughout. Moreover, in the series on HeLa cells [3] (in the presence of 10% FBS), the “fold more active than CPP9 and CPP12” value was −3 fold.

Regarding “cyclo(Lys^DecaRRRRQ) (cyclo(K(Decanoyl)RRRRQ); SMILES CCCCCCCCCC(=O)NCCCC[C@@H]1NC(=O)[C@H](CCC(N)=O)NC(=O)[C@H](CCCNC(=N)N)NC(=O)[C@H](CCCNC(=N)N)NC(=O)[C@H](CCCNC(=N)N)NC(=O)[C@H](CCCNC(=N)N)NC1=O) [CPP1-15]”, the “cellular entry (confocal imaging)” value in the series with HeLa cells [1] is reported as “entered HeLa cells efficiently”. For the same substance, the cytotoxicity result in the series with HeLa cells [4] is recorded as “did not show significant cytotoxicity”. Further, the “Cellular Entry Efficiency In 1% FBS” value in the series with HeLa cells [2] (Table 4, NF-labelled peptide) is recorded as 44 ± 11%; with HeLa cells [2] (Table 7, NF-labelled peptide), 44 ± 11%. Moreover, the cytosolic entry efficiency in the series with HeLa cells [2] came to 43%. The “sensitivity to serum concentration” value with HeLa cells [3] is “lower sensitivity to serum concentration”. The “Cellular Entry Efficiency In 10% FBS” value with HeLa cells [3] (setting [5]) and in the series on HeLa cells [3] (setting [6]) was 76 ± 21% in each case. Also, the “CPP activity compared with CPP1-4 (in words)” value in the series with HeLa cells [3] (variant of CPP1-4) was “slightly increased the CPP activity”.
